Measurements reported in patent publication US11857550B2, “Benzathine analogs” (University of Pittsburgh—Of the Commonwealth System of …, priority 2012, dated 2024).

Target: T1, COX-2 (Mus musculus, UniProt Q05769)
T1 construct: MLE cells were treated with BC-1215 (10 ug/ml) for 24 h before assaying for COX-2 activity (Cayman); endogenous in cells; host or cells: MLE (murine lung epithelial) cells
T1 sequence (Q05769 18-604): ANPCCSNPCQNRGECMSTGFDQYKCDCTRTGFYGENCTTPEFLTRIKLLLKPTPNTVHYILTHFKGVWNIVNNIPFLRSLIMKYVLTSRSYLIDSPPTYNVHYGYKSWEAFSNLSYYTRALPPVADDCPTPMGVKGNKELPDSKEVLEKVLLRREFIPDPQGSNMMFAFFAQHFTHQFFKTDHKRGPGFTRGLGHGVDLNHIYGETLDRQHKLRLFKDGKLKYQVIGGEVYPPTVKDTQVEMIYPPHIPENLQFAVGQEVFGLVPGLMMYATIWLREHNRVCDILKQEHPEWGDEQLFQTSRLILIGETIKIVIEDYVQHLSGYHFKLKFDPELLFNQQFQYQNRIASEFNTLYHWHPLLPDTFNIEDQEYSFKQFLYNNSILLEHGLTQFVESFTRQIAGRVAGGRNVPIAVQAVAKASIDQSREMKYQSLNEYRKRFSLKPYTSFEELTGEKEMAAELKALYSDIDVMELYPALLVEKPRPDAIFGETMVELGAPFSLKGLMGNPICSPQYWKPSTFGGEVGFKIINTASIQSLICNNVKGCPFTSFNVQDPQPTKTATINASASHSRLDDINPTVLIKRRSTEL
Assay: COX-2 activity in MLE cells
Type: cell-based, murine
Settings: 10 ug/ml, 24 h; positive control DuP-697

c1ccc(-c2ccc(CNCCNCc3ccc(-c4ccccn4)cc3)cc2)nc1 [BC-1215]
COX-2 activity: did not alter COX-2 activity
